The record followed here is US11317629B2, “Liquid composition comprising mefentrifluconazole” (SUMITOMO CHEMICAL COMPANY, LIMITED, priority 2019, dated 2022).

Molecules are shown by their SMILES.

The test system of series [1] is corn (variety: Pioneer). The series is described as follows: Phytotoxicity Test Example 1: compositions dripped into the whorl of corn plants, plant length. The conditions noted are these: 10,000 ppm. The class given is in vivo. How it is done:
Liquid compositions comprising 10,000 ppm of mefentrifluconazole, 1.25 or 10% by volume of an oil adjuvant and water (hereinafter referred to as Present Composition 7 and Present Composition 8) were prepared by diluting mefentrifluconazole SC and an oil adjuvant (COC: Agri-Dex, containing 82% of heavy range paraffinic oil, 17% of surfactant, and 1% of other components, manufactured by Helena), respectively, with water and mixing them. Similarly to the Present Composition 7 and 8, liquid compositions (hereinafter referred to as Present Composition 9 and Present Composition 10) were prepared by replacing Agri-Dex with Sundance II (MSO, containing 90% of methylated seed oil and 10% of alkyl and aryl alkoxylates and phosphate esters). […]
A soil was filled into a plastic pot, and corn (variety: Pioneer) was seeded therein, and grown in a greenhouse for 4 days. […] After dripping, the plants were placed in the greenhouse for 8 days, then the plant lengths were measured. […]
From the plant lengths in each of the treated plants and the non-treated plants, the relative length of the compositions was determined according to the following “Formula 2”. […]

Series [2] concerns corn (variety: Pioneer). Kind of series: Phytotoxicity Test Example 2: compositions sprayed onto corn plants, plant length. The class given is in vivo. The conditions noted are these: 2,000 ppm. How it is done: A liquid composition comprising 2,000 ppm of mefentrifluconazole, 10% by volume of an oil adjuvant and water (hereinafter referred to as Present Composition 13) were prepared by diluting mefentrifluconazole SC and an oil adjuvant (COC: Agri-Dex, containing 82% of heavy range paraffinic oil, 17% of surfactant, and 1% of other components, manufactured by Helena) with water and mixing them. Similarly to the Present Composition 13, a liquid compositions (hereinafter referred to as Present Composition 14) were prepared by replacing Agri-Dex with Sundance II (MSO, containing 90% of methylated seed oil and 10% of alkyl and aryl alkoxylates and phosphate esters). Similarly to the Present Composition 13, a liquid composition (hereinafter referred to as Present Composition 15) were prepared by replacing Agri-Dex with Destiny (HSOC, containing 50% of methylated seed oil, 42% of sorbitan fatty acid esters and high fructose corn syrup, and 8% of other ingredients). […]
A soil was filled into a plastic pot, and corn (variety: Pioneer) was seeded therein, and grown in a greenhouse for 4 days. […] After spraying, the plants were placed in the greenhouse for 8 days, then the plant lengths were measured. […]
From the plant lengths in each of the treated plants and the non-treated plants, the relative length of the compositions was determined according to the above “Formula 2”.

`N#CC(CCc1ccc(Cl)cc1)(Cn1cncn1)c1ccccc1` (stereo not shown) [fenbuconazole]: the “Effect of addition of oil adjuvants on retardation of corn plant” value in the series with corn (variety: Pioneer) [1] (oil adjuvants 1.25 or 10% by volume) was “severely enhanced the retardation”. The “Retardation of corn plant without adjuvant” value with corn (variety: Pioneer) [1] (without adjuvant) is given as “retarded corn plant slightly”. In addition, the “Effect of addition of oil adjuvants on corn plant length” value in the series on corn (variety: Pioneer) [2] (oil adjuvants 10% by volume) is “enhanced the retardation”. For the same molecule, in the series with corn (variety: Pioneer) [2] (without adjuvant), the “Effect on plant length without adjuvant” value is reported as “did not effect on plant length”.
